The values below come from patent publication US12180192B2, “Modulators of THR-β and methods of use thereof” (ALIGOS THERAPEUTICS, INC., priority 2019, dated 2024).

Structures are written as SMILES. Read-outs that look alike come from different tables or passages of the source. Bounds are passed on as bounds.

The target of one test is T1, THR alpha (Homo sapiens, UniProt P10827).
T1 construct: expressed in transfected cells; host or cells: HEK293T (ATCC CRL-3216)
T1 sequence (P10827 1-410 isoform P10827-2): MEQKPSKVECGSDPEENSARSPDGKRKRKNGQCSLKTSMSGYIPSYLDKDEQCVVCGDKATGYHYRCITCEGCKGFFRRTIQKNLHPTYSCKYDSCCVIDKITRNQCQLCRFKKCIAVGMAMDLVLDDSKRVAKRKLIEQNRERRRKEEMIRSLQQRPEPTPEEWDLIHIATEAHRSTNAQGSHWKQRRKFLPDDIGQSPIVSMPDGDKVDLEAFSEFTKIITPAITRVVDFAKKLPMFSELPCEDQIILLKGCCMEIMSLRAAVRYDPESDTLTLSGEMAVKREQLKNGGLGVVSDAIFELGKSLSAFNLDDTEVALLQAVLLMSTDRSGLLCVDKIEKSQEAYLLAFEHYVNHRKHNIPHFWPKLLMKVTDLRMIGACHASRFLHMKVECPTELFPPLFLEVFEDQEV
T1 sequence (P19793 1-462 partner): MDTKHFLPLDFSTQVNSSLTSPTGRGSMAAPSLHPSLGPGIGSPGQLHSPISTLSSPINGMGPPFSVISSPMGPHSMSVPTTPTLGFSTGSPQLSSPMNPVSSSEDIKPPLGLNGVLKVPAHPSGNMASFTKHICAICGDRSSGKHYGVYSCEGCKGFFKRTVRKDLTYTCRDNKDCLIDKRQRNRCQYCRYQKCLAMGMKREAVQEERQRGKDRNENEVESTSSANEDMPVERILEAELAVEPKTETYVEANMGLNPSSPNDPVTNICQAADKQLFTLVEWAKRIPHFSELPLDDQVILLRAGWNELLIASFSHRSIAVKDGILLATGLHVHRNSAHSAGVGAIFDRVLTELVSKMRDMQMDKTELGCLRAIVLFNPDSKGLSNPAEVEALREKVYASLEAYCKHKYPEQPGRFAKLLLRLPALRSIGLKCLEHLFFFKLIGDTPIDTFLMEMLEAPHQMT
Kind of test: HEK293T THR alpha/RXR luciferase reporter assay (Assay 2). The format is cell-based. Conditions: for Emax: HEK-293T. The method, boiled down:
(§1)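 Compounds tested as ten-point five-fold dilution series for 18-24 h on transiently transfected HEK293T cells carrying TRE-driven luciferase plus RXR and either THR alpha or beta expression plasmids. Read-out by One-Glo luminescence, expressed as percent agonism relative to negative and positive controls.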
(Reporter assays use an easily measured gene product as a stand-in for the process of interest.)

Test [1] has as its target T2, human thyroid receptor beta ligand-binding domain (LBD) (Homo sapiens, UniProt P10828).
T2 construct: purchased Invitrogen
T2 sequence (P10828 217-461 limits assumed): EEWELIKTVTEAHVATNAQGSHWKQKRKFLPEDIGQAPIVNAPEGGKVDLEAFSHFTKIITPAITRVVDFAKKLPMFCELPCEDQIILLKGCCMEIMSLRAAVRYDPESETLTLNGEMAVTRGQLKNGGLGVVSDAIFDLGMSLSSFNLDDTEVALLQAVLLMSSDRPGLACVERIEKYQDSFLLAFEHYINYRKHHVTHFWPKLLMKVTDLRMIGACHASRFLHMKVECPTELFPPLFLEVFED
As to the kind of experiment: TR-FRET thyroid receptor beta coactivator assay (THR biochemical assay, Assay 1). Conditions: for EC50: THR-beta, TR-FRET coactivator assay, read-out: Activity category Assay 1 (EC50, THR-beta agonist); for Emax: Table 5, Assay 1, THRβ, read-out: Activity category Assay 1 THRβ (Emax). Summed up:
(§2)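 Agonist-driven coactivator recruitment measured by TR-FRET: terbium anti-GST antibody (2 nM) bound to GST-LBD of TRβ or TRα (1 nM final, stated for β), with fluorescein SRC2-2 peptide at 200 nM. Compounds at 1% DMSO. Read after 1 h, room temperature, protected from light.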
For orientation: Time-resolved FRET reads energy transfer from a long-lived donor to a nearby acceptor.

The next test has as its target T3, THR beta (Homo sapiens, UniProt P10828).
T3 construct: expressed in transfected cells; host or cells: HEK293T (ATCC CRL-3216)
T3 sequence (P10828 1-461): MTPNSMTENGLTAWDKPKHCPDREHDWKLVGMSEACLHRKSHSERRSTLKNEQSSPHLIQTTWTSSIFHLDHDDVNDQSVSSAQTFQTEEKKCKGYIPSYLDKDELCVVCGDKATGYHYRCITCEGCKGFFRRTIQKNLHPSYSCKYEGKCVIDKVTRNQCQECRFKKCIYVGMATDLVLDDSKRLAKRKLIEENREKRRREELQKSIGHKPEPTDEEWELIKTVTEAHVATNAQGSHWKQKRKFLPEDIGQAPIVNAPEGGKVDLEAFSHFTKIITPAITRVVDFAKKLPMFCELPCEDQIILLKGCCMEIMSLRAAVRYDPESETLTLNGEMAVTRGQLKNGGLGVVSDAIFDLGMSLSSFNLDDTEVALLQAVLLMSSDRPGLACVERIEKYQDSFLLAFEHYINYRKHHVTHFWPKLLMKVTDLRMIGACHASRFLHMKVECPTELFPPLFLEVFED
T3 sequence (P19793 1-462 partner): T1 sequence (P19793 1-462 partner)
Kind of test: HEK293T THR beta/RXR luciferase reporter assay (Assay 2). The test is classed as cell-based. Conditions: for Emax: HEK-293T. Summed up:
as §1

The target in test [2] is T4, human thyroid receptor alpha ligand-binding domain (LBD) (Homo sapiens, UniProt P10827).
T4 construct: purchased Invitrogen
Kind of test: TR-FRET thyroid receptor alpha coactivator assay (THR biochemical assay, Assay 1). Conditions: for EC50: Table 4, THR-alpha, read-out: Activity category Assay 1 (EC50, THR-alpha agonist activity); for Emax: Table 5, THRα, read-out: Activity category Assay 1 THRα (Emax). The method, boiled down:
as §2

The mark [3] stands for this setting: Table 5, Assay 2, THRα, read-out: Activity category Assay 2 THRα (Emax).
Where [4] appears, read: Table 4, THR-alpha, Assay 2, read-out: Activity category Assay 2 (EC50, THR-alpha agonist activity).
The mark [5] stands for this setting: Table 5, Assay 2, THRβ, read-out: Activity category Assay 2 THRβ (Emax).
[6] abbreviates: THR-beta, HEK293T reporter assay, read-out: Activity category Assay 2 (EC50, THR-beta agonist).

Regarding `Nc1nn(-c2cc(Cl)c(Oc3cc(C4CCC4)c(=O)[nH]n3)c(Cl)c2)c(=O)[nH]c1=O` [Compound 40, 6-amino-2-[3,5-dichloro-4-[(5-cyclobutyl-6-oxo-1H-pyridazin-3-yl)oxy]phenyl]-4H-1,2,4-triazine-3,5-dione], the EC50 was 564 nM at THR alpha (HEK293T reporter THRalpha/RXR, read-out: EC50 α); 250 to 1000 nM at THR alpha (setting [4]); under 50 nM in test [1]; 58 nM at THR beta (HEK293T reporter THRbeta/RXR, read-out: EC50 β); 50 to 250 nM on THR beta (setting [6]); 50 to 250 nM in test [2]. Also, the Emax at THR alpha (HEK293T reporter THRalpha/RXR, read-out: percent in parentheses below EC50 α (percent agonism / Emax)) is 95%; on THR alpha (setting [3]), over 75%; in test [1] it was 50 to 75%; at THR beta (HEK293T reporter THRbeta/RXR, read-out: percent in parentheses below EC50 β (percent agonism / Emax)), 92%; at THR beta (setting [5]), over 75%; in test [2], 50 to 75%.
For the molecule `Cc1cc(-n2nc(N)c(=O)[nH]c2=O)cc(C)c1Cc1ccc(O)c(-c2ccccc2)n1` [Compound 43, 6-amino-2-[4-[(5-hydroxy-6-phenylpyridin-2-yl)-methyl]-3,5-dimethylphenyl]-4H-1,2,4-triazine-3,5-dione], the Emax (at THR alpha (setting [3]); in test [1]; on THR beta (setting [5]); in test [2]) was over 75% in each case. Besides, the EC50 (on THR alpha (setting [4]); in test [1]; in test [2]) was under 50 nM each time.
Consider `CC(C)c1c[nH]c2nnc(Oc3c(Cl)cc(-n4nc(C#N)c(=O)[nH]c4=O)cc3Cl)cc12` [Compound 52, 2-[3,5-dichloro-4-([5-isopropyl-7H-pyrrolo[2,3-c]pyridazin-3-yl]oxy)phenyl]-3,5-dioxo-4H-1,2,4-triazine-6-carbonitrile], for which the Emax was 50 to 75% on THR alpha (setting [3]), under 50% in test [1], over 75% at THR beta (setting [5]) and under 50% in test [2]. Besides, the EC50 at THR alpha (setting [4]) is over 10000 nM; in test [1] it was 50 to 250 nM; at THR beta (setting [6]) it was over 10000 nM; in test [2], 1000 to 25000 nM.
In the case of `Cc1cc(-n2ncc(=O)[nH]c2=O)cc(C)c1Cc1ccc2[nH]cc(C(C)C)c2n1` [Compound 54, 2-[4-[(3-isopropyl-1H-pyrrolo[3,2-b]pyridine-5-yl)methyl]-3,5-dimethyl-phenyl]-1,2,4-triazine-3,5-dione], the Emax is 50 to 75% at THR alpha (setting [3]), 50 to 75% in test [1], over 75% on THR beta (setting [5]) and under 50% in test [2]. For the same molecule, the EC50 (on THR alpha (setting [4]); in test [1]; on THR beta (setting [6]); in test [2]) was under 50 nM each time.
Consider `Cc1cc(-n2nc(N)c(=O)[nH]c2=O)cc(C)c1Cc1ccc2[nH]cc(C(C)C)c2n1` [Compound 55, 6-amino-2-[4-[(3-isopropyl-1H-pyrrolo[3,2-b]pyridin-5-yl)methyl]-3,5-dimethyl-phenyl]-1,2,4-triazine-3,5-dione], for which the Emax was over 75% at THR alpha (setting [3]), 50 to 75% in test [1], over 75% at THR beta (setting [5]) and 50 to 75% in test [2]. For the same molecule, the EC50 on THR alpha (setting [4]) was 50 to 250 nM; in test [1], under 50 nM; on THR beta (setting [6]), under 50 nM; in test [2] it was under 50 nM.
For the molecule `Nc1nn(-c2cc(Cl)c(Oc3cc(-c4ccc5ccccc5c4)c(=O)[nH]n3)c(Cl)c2)c(=O)[nH]c1=O` [Compound 67, 6-amino-2-(3,5-dichloro-4-[[5-(naphthalen-2-yl)-6-oxo-1H-pyridazin-3-yl]oxy]phenyl)-4H-1,2,4-triazine-3,5-dione], the Emax on THR alpha (setting [3]) was under 50%; in test [1], under 50%; at THR beta (setting [5]), 50 to 75%; in test [2], under 50%. Moreover, the half-maximal effective concentration (EC50) at THR alpha (setting [4]) is over 10000 nM; in test [1] it was 50 to 250 nM; at THR beta (setting [6]) it was 50 to 250 nM; in test [2], 1000 to 25000 nM.
For `Nc1nn(-c2cc(Cl)c(Oc3n[nH]c(=O)cc3-c3ccc4ccccc4c3)c(Cl)c2)c(=O)[nH]c1=O` [Compound 67-A, 6-amino-2-(3,5-dichloro-4-((4-(naphthalen-2-yl)-6-oxo-1,6-dihydropyridazin-3-yl)oxy)phenyl)-1,2,4-triazine-3,5(2H,4H)-dione], the Emax (on THR alpha (setting [3]); in test [1]; on THR beta (setting [5]); in test [2]) was under 50% each time. Also, the values for the EC50 (at THR alpha (setting [4]); in test [1]; in test [2]) were 1000 to 10000 nM, under 50 nM and over 25000 nM, respectively.
For `Cc1cccc(-c2cc(Oc3c(Cl)cc(-n4nc(N)c(=O)[nH]c4=O)cc3Cl)n[nH]c2=O)c1` [Compound 70, 6-Amino-2-(3,5-dichloro-4-((6-oxo-5-(m-tolyl)-1,6-dihydropyridazin-3-yl)oxy)phenyl)-1,2,4-triazine-3,5(2H,4H)-dione], the Emax on THR alpha (setting [3]) is 50 to 75%; in test [1] it was under 50%; at THR beta (setting [5]), over 75%; in test [2] it was under 50%. In addition, the EC50 on THR alpha (setting [4]) was 50 to 250 nM; in test [1], under 50 nM; at THR beta (setting [6]), under 50 nM; in test [2] it was 50 to 250 nM.
As for `Nc1nn(-c2cc(Cl)c(Oc3cc(-c4ccc5c(c4)CCCC5)c(=O)[nH]n3)c(Cl)c2)c(=O)[nH]c1=O` [Compound 72, 6-Amino-2-(3,5-dichloro-4-((6-oxo-5-(5,6,7,8-tetrahydro-naphthalen-2-yl)-1,6-dihydro-pyridazin-3-yl)oxy)phenyl)-1,2,4-triazine-3,5(2H,4H)-dione], the Emax at THR alpha (setting [3]) is under 50%; in test [1], under 50%; at THR beta (setting [5]), 50 to 75%; in test [2] it was under 50%. Moreover, the EC50 on THR alpha (setting [4]) is over 10000 nM; in test [1] it was 50 to 250 nM; on THR beta (setting [6]), 50 to 250 nM; in test [2], over 25000 nM.
`Nc1nn(-c2cc(Cl)c(Oc3n[nH]c(=O)cc3-c3ccc4c(c3)CCCC4)c(Cl)c2)c(=O)[nH]c1=O` [Compound 72-A, 6-amino-2-(3,5-dichloro-4-[[6-oxo-4-(5,6,7,8-tetrahydronaphthalen-2-yl)-1H-pyridazin-3-yl]oxy]phenyl)-4H-1,2,4-triazine-3,5-dione]: the Emax on THR alpha (setting [3]) was under 50%; in test [1] it was under 50%; on THR beta (setting [5]), 50 to 75%; in test [2], under 50%. Moreover, the EC50 was over 10000 nM on THR alpha (setting [4]), under 50 nM in test [1], 50 to 250 nM at THR beta (setting [6]) and 50 to 250 nM in test [2].

What is called EC50 is the concentration that produces a half-maximal response.
